# Laboratory results: patent US20130287763A1, “COMBINATION THERAPY FOR TREATING CANCER COMPRISING AN IGF-1R INHIBITOR AND AN AKT INHIBITOR” (MERCK SHARP & DOHME CORP., priority 2010, published 2013)
# Entries after “also recorded” stand apart in the source; their conditions may differ.
# Columns and labels:
# HT-29 cells [1] = assay: Western blot of HT-29 cells treated with increasing doses of MK-2206; type: cell-based, human; conditions: MK-2206 0.041-1.11 um, western blot (FIG. 1A)
# Description: All CRC and NSCLC cell lines were obtained from ATCC and maintained in 10% fetal bovine serum, FBS (Hyclone) containing media (DMEM or RPMI; Invitrogen Inc) supplemented with pen-strep (Invitrogen) at 37° C. according to the instructions from ATCC. Total protein lysates from cells (˜0.3 million) cultured in 6 well plates were generated by removing the media, rinsing once with PBS and lysing in NP-40 buffer (1% NP-40, 20 MM Tris-HCL (pH8.0), 137 mM NaCl, 10% glycerol, 2 mM EDTA, Mini Complete protease inhibitor, HALT phosphatase Inhibitor cocktail). Samples were western blotted with indicated total or phosphor-specific antibodies followed by a secondary antibody (Cell Signaling Technology, CST) and then incubated with SuperSignal chemiluminescence substrate (Pierce). The blots were then exposed to a Kodak Biomax Light Film. The antibodies against ERK, p-ERK (Thr202/Tyr204), AKT and p-AKT (Ser473), IGF1R13, S6K & P-S6K (T389), IRS1 & P-IRS1 (S302) and actin were obtained from CST. Total IGF1R antibody was obtained from Santa Cruz and GAPDH was obtained from Chemicon.
# HT-29 cells [2] = assay: Phospho-RTK arrays, HT-29 cells; type: cell-based, human
# Description: (§1) All CRC and NSCLC cell lines were obtained from ATCC and maintained in 10% fetal bovine serum, FBS (Hyclone) containing media (DMEM or RPMI; Invitrogen Inc) supplemented with pen-strep (Invitrogen) at 37° C. according to the instructions from ATCC.
# (§2) About 2 million cells were cultured in 10 cm plates and protein lysates were prepared from a sub-confluent culture. 500 ug of protein lysate were incubated with RTK Arrays (R&D bioscience; cat# ARY001) and developed as detailed in the manual. The arrays were probed with HRP-conjugated P-Tyr antibody and then incubated with Super-Signal chemiluminescence substrate (Pierce) and blots were then exposed to a Kodak Biomax Light Film.
# [3] = tested on: SKCO1 (CRC), HCC70 (breast cancer), H1793 (NSCLC) cells; assay: Phospho-RTK arrays, cell lines from different cancer types; type: cell-based, human; conditions: cell type-dependent
# Description: as §2, with “All CRC and NSCLC cell lines were obtained from ATCC and maintained in 10% fetal bovine serum, FBS (Hyclone) containing media (DMEM or RPMI; Invitrogen Inc) supplemented with pen-strep (Invitrogen) at 37° C. according to the instructions from ATCC. About” for “About”
# [4] = tested on: SKCO1 (KRASmut) xenograft tumors; assay: SKCO1 xenograft growth assessment; type: in vivo, mice; conditions: MK-0646 20 mg/kg i.p. once a week, MK-2206 140 mg/kg p.o. 3-times a week (FIG. 4)
# Description: (§3) A suspension of human SKCO1 and SW837 cells (5×10^6) and HT29 (3×10^6) in Matrigel (Cat. #356231, BD Biosciences; 1:1 v/v) were injected subcutaneously into the right flank of 4-6 week old SCID Hairless Outbred (SHO), NOD SCID, or CD-1 nu/nu (Jackson Laboratories) mice, respectively. When tumors reached a size of ˜300 mm3 (Length*Width*Width*0.5), mice were randomized into treatment groups. […] Animals were weighed and tumor volumes were determined by calipering 2 times per week during the study and at termination. Tumor weight was measured and recorded at termination. On day 28 animals were sacrificed by CO2 asphyxiation. […] At time of sacrifice tumors pieces were collected for western blot analysis (snap frozen in liquid nitrogen) and for immunohistochemistry (10% neutral buffered formalin).
# [5] = tested on: SW837 (KRASG12C) xenograft tumors; assay: SW837 xenograft growth assessment; type: in vivo, mice; conditions: compared to the vehicle treated group (FIG. 5)
# Description: as §3
# IGF-1R signaling pathway = assay: Western blot analysis of IGF-1R/PI3K pathway activity in xenograft tumor samples; type: in vivo, mice; conditions: 24 hrs after MK-0646 or 6 hrs after MK-2206 (FIG. 6)
# Description: Total protein lysates from cells (˜0.3 million) cultured in 6 well plates were generated by removing the media, rinsing once with PBS and lysing in NP-40 buffer (1% NP-40, 20 MM Tris-HCL (pH8.0), 137 mM NaCl, 10% glycerol, 2 mM EDTA, Mini Complete protease inhibitor, HALT phosphatase Inhibitor cocktail). Samples were western blotted with indicated total or phosphor-specific antibodies followed by a secondary antibody (Cell Signaling Technology, CST) and then incubated with SuperSignal chemiluminescence substrate (Pierce). The blots were then exposed to a Kodak Biomax Light Film. The antibodies against ERK, p-ERK (Thr202/Tyr204), AKT and p-AKT (Ser473), IGF1R13, S6K & P-S6K (T389), IRS1 & P-IRS1 (S302) and actin were obtained from CST. Total IGF1R antibody was obtained from Santa Cruz and GAPDH was obtained from Chemicon. A suspension of human SKCO1 and SW837 cells (5×10^6) and HT29 (3×10^6) in Matrigel (Cat. #356231, BD Biosciences; 1:1 v/v) were injected subcutaneously into the right flank of 4-6 week old SCID Hairless Outbred (SHO), NOD SCID, or CD-1 nu/nu (Jackson Laboratories) mice, respectively. When tumors reached a size of ˜300 mm3 (Length*Width*Width*0.5), mice were randomized into treatment groups. […] Animals were weighed and tumor volumes were determined by calipering 2 times per week during the study and at termination. Tumor weight was measured and recorded at termination. […]
# SW-837 cells = assay: Phospho-RTK arrays, SW-837 cells; type: cell-based, human; conditions: SW-837, 20.95 ug/ml MK-0646, 18 hrs (FIG. 3C)
# Description: as §1, §2
# [6] = HT-29 cells, 1 uM MK-2206, 18 hrs, RTK arrays (FIG. 1B)
Compound,phosphorylation of AKT (HT-29 cells [1]),total IGF-1R levels (HT-29 cells [1]),phosphorylation of IGF-1R (HT-29 cells [2]; [6]),phosphorylation of IR and cMET (HT-29 cells [2]; [6]),"RTK activity (Her2) ([3]; MK-2206, 18 hrs, RTK arrays (FIG. 2))","phosphorylation of RTKs (IGF-1R, IR, cMET, Her2, Her3, EphA2) ([3]; SKCO1 370 nM, HCC70 370 nM, H1793 1 uM MK-2206, 18 hrs (FIG. 2))",tumor growth inhibition compared to vehicle treated control group [4],tumor growth inhibition [5] [%],IGF-1R signaling as measured by phosphorylation of IGF-1R (IGF-1R signaling pathway),"amount of active cMET and insulin receptor (HT-29 cells [2]; HT-29, 20.95 ug/ml MK-0646, 18 hrs (FIG. 3A))",amount of active cMET and insulin receptor (SW-837 cells)
"NC1(c2ccc(-c3nc4ccn5c(=O)[nH]nc5c4cc3-c3ccccc3)cc2)CCC1 [MK-2206, 8-[4-(1-Aminocyclobutyl)phenyl]-9-phenyl[1,2,4]triazolo[3,4-f]-1,6-naphthyridin-3(2H)-one]",diminished in a dose dependent manner,increase in a dose dependent manner,increase,observed,can decrease,increasing the phosphorylation of multiple RTKs,significant growth inhibition; also recorded: significantly inhibited tumor growth,~30,feedback activation of IGF-1R signaling,,
MK-0646: humanized antibody characterized as binding IGF-1R as well as the IR/IGF-1 hybrid receptor,,,,,,,significant growth inhibition; also recorded: significantly inhibited tumor growth,~10,,reduced,reduced
